Experiments:
PC12 cells = conditions: Kuai et al. 2011; cited from earlier work
AAK1 = target: T1, AAK1 (Homo sapiens, UniProt Q2M2I8); experiment: HEK281 cell-based assay (phospho-mu2 Western blot in transfected HEK293F cells); conditions: HEK293F cells transfected with human AAK1 and AP2M1; 3 hours; class symbols; read-out: CBA IC50
T1 construct: expressed in transfected cells; host or cells: HEK293F
Description: HEK293F cells were cultured in media containing DMEM (Gibco, cat. #11965), 10% FBS (SAFC Biosciences, cat. #12103C), 1×GPS (glutamine, penicillin and streptomycin). On day one, cells were plated on a 10 cm dish so that they are ˜80% confluent at time of transfection. Roughly 12 million cells were in a 10 cm dish at time of transfection. On day two, each dish was transfected with 48 ug DNA and 144 ul Lipofectamine 2000 (Invitrogen, cat.#11668-019). The DNA was comprised of a mixture (per 10 cm dish) containing 3 ug AAK1/HA/pIRES (full length human, NCBI accession no. NP_055726.2), 45 μg Flag/AP2MI/pcDNA (full length human), and 1.5 ml OPTI-MEM. The Lipofectamine 2000 is made up of a mixture (per 10 cm dish) containing 144 μl Lipofectamine 2000 and 1.5 ml OPTI-MEM. Each mixture was transferred to individual 15 ml tubes and incubated at room temperature for 5 minutes, and then the two mixes were combined and incubated at room temperature for 20 minutes. Growth media was then aspirated from each 10 cm plate and replaced with 10 ml of DMEM+10% FBS (no GPS). Finally, 3 ml DNA/Lipofectamine mix was added to each 10 cm dish and mix gently followed by incubate of plate overnight at 37° C. and 5% CO2.
On day three, compounds were diluted in 100% DMSO at 1000× final concentration, followed by 3-fold serial dilutions for a total of 5 concentrations tested. Four compounds were tested per 10 cm dish. One ul of each compound dilution was then pipetted into a deep-well, 96-well plate, followed by addition of 500 μl DMEM+0.5% FBS into each well for a 2× final concentration of each compound. Cells were resuspended in a 10 cm dish by simple pipetting (HEK293 cells come off the plate that easy at this point) and then transferred to a 50 ml conical tube and pelleted by centrifugation at 1000 rpm for 5 min. Cell pellets were then resuspended in 2.75 ml DMEM+0.5% FBS per 10 cm dish and 100 μl of cell suspension transferred into each well of 96-well TC plate. Finally, 100 μl of 2× compound diluted in DMEM+0.5% FBS was then added into wells containing cell suspension for a 1× final concentration. Plates were then incubated at 37° C. and 5% CO2 for 3 hours followed by transferring of cell suspensions from each well into 12-tube PCR strips. The PCR strips were spun in a tip rack at 1000 rpm for 5 minutes to pellet cells and media was then removed by pipetting without disturbing the cell pellet.
To prepare for Western Blot analysis, cell pellets were resuspend in 40 ul 1×LDS-PAGE sample buffer (Invitrogen, cat.# NP0008)+2× Halt phophatase and protease inhibitor cocktail (Thermo Scientific, cat.#1861284), followed by sonicating each with microtip sonicator set at 5 for 8-10 seconds. Five ul of 10× NuPage Sample Reducing Agent (with […]) was to each sample followed by heat denaturing at 70 C for 10 min on PCR machine. A total of 10 μl per sample was loaded into each lane of a 4-20% Tris-Glycine Criterion 26-well gel (Biorad, cat.#345-0034) for the phospho-mu2 blot and 10 μl per lane in a 4-12% Bis-Tris (+MES buffer) NuPAGE 26-well gel (Invitrogen, cat.# WG1403BX10) for the mu2 blot. For controls, 2 ng of phospho-mu2 or 20 ng mu2/Flag proteins were loaded in the last well of each gel. After SDS-PAGE, samples on each gel were transferred to PVDF membrane using an iBlot and membranes were blocked for one hour in TBST+5% milk, followed by wash 3× for 5-10 min with TBST. Criterion gels were probed with rabbit anti-phospho-mu2 (1:5000; a rabbit polyclonal antibody produced by New England Peptide and affinity purified at Lexicon) in TBST+5% BSA, whereas, NuPAGE gels were probed with mouse anti-Flag (1:500; Sigma, cat.# F1804) in TBST+5% milk, and these primary antibodies were incubated overnight at 4° C. on a rocker. […]

[1] = target: T2, AAK1 (full-length human protein) (Homo sapiens, UniProt Q2M2I8); experiment: P81 filter plate assay; assay type: biochemical; conditions: 0.2 nM 2x AAK1, Mu2 substrate, 33P-ATP
T2 construct: NP_055726.2
T2 sequence (Q2M2I8 1-863 isoform Q2M2I8-2): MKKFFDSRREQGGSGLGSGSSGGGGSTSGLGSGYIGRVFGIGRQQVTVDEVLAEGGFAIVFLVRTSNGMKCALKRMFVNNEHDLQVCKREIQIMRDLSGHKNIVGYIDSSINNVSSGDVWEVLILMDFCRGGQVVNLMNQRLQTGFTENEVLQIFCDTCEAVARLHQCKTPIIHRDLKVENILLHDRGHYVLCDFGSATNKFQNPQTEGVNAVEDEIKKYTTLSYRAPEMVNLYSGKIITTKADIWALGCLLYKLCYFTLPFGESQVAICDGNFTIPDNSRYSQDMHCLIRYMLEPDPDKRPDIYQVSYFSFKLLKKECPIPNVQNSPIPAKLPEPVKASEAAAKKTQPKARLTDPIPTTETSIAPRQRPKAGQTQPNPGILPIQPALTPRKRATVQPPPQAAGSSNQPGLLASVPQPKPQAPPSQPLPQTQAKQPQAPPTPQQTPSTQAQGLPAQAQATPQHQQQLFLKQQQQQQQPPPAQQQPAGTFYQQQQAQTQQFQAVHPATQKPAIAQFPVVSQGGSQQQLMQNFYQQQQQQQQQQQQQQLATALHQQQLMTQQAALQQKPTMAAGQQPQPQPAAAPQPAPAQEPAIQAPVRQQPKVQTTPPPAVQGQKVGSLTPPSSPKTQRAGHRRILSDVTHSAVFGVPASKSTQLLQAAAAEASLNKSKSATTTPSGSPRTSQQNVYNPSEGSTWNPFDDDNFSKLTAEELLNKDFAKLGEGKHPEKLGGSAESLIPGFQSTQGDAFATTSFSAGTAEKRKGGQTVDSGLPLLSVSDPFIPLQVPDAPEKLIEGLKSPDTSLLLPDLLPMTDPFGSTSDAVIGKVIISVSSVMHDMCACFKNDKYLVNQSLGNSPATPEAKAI
Description: Compounds were serially diluted into a Labcyte LDV plate (Labcyte, cat# LP-0200) using a Mutiprobe (PerkinElmer) and Biomek FX (Beckman Coulter) so that the highest compound concentration was at 96 μM. Compounds were then pinged (75 nL per well) into a Greiner 384-well reaction plate (Greiner, #781076) using an ECHO 550 Liquid Handler (Labcyte). A total of 12 μl reaction buffer (IMAP buffer containing Tween and DTT, from Molecular Devices) was then added to each well of columns 1 and 13 for the negative controls and 12 μl of 2×AAK1 (0.2 nM full-length human protein, NCBI accession no. NP_055726.2) was added to the remaining wells. Enzyme was then pre-incubated with compound for 10 minutes at RT. Reactions were initiated upon Minitrak (PerkinElmer) addition of 12 μl substrate mix containing 2×Mu2 (0.2 μM, full length human protein), 2× cold ATP (2 μM), and 1.3 μCi of hot ^33P-ATP. Reactions proceeded for one hour at RT. Meanwhile, Millipore 384-well P81 filter plates (Millipore, catalog # MZPHN0W10) were placed on a plate washer (Zoom ZW, from Titertek) and pre-wet with 50 μl […] phosphoric acid. Kinase reactions were then stopped upon addition of 24 μl of 2% phosphoric acid to each well and the Minitrak was then used to transfer 40 μl from each well into the pre-wet Millipore 384-well P81 filter plates. Reaction mixtures were incubated for 10 minutes at room temperature in the P81 plates, followed by washing five times with 100 μl/well of 1% phosphoric acid using the Zoom filter washer. The bottom of each filter plate was sealed followed by addition of 20 μl Microscint 40 to each well, sealing the top of the plates with Flashplate cover, and then waiting one hour until reading on the TopCount (PerkinElmer).

T1 sequence (Q2M2I8 1-863 isoform Q2M2I8-2): as above

Row | IC50 (AAK1) | IC50 ([1]; class symbols) | IC50 ([1]; numeric bounds) | SMILES | Effect on Neuregulin-1 induced neurite outgrowth (PC12 cells)
1 | – | – | – | COC(=O)[C@@]1(O)C[C@H]2O[C@]1(C)n1c3ccccc3c3c4c(c5c6ccccc6n2c5c31)C(=O)NC4 [K252a] | potentiation of Neuregulin-1 induced neurite outgrowth
2 | ≤ 10 nM | ≤ 10 nM | – | COc1ncc(F)cc1-c1cnn2ccc(-c3ccn(CCC(C)C)c(=O)c3)nc12 [4-(3-(5-fluoro-2-methoxypyridin-3-yl)pyrazolo[1,5-a]pyrimidin-5-yl)-1-isopentylpyridin-2(1H)-one] | –
3 | ≤ 10 nM | ≤ 1000 nM | – | COc1cc(-c2ccn3ncc(-c4cc(F)ccc4OC)c3n2)ccn1 [3-(5-fluoro-2-methoxyphenyl)-5-(2-methoxypyridin-4-yl)pyrazolo[1,5-a]pyrimidine] | –
4 | ≤ 10 nM | – | > 300 nM | COc1ncccc1-c1cnn2ccc(C3CCN(C(=O)OC(C)C)CC3)nc12 [isopropyl 4-(3-(2-methoxypyridin-3-yl)pyrazolo[1,5-a]pyrimidin-5-yl)piperidine-1-carboxylate] | –
5 | ≤ 10 nM | ≤ 10 nM | – | COc1nc(C)ccc1-c1cnn2ccc(-c3ccn(CCC(C)C)c(=O)c3)nc12 [1-isopentyl-4-(3-(2-methoxy-6-methylpyridin-3-yl)pyrazolo[1,5-a]pyrimidin-5-yl)pyridin-2(1H)-one] | –
6 | ≤ 10 nM | ≤ 10 nM | – | COc1ncccc1-c1cnn2ccc(-c3ccn(CCN4CCOCC4)c(=O)c3)nc12 [4-(3-(2-methoxypyridin-3-yl)pyrazolo[1,5-a]pyrimidin-5-yl)-1-(2-morpholinoethyl)pyridin-2(1H)-one] | –
7 | ≤ 10 nM | ≤ 10 nM | – | COc1ccc(F)cc1-c1cnn2ccc(-c3ccn(CC(C)C)c(=O)c3)nc12 [4-(3-(5-fluoro-2-methoxyphenyl)pyrazolo[1,5-a]pyrimidin-5-yl)-1-isobutylpyridin-2(1H)-one] | –
8 | ≤ 10 nM | ≤ 10 nM | – | COc1ncccc1-c1cnn2ccc(-c3ccn(CC(C)C)c(=O)c3)nc12 [1-isobutyl-4-(3-(2-methoxypyridin-3-yl)pyrazolo[1,5-a]pyrimidin-5-yl)pyridin-2(1H)-one] | –
9 | ≤ 10 nM | ≤ 10 nM | – | COc1ccc(F)cc1-c1cnn2ccc(-c3ccn(CCC(C)(C)C)c(=O)c3)nc12 [1-(3,3-Dimethylbutyl)-4-(3-(5-fluoro-2-methoxyphenyl)pyrazolo[1,5-a]pyrimidin-5-yl)pyridin-2(1H)-one] | –
10 | ≤ 10 nM | ≤ 10 nM | – | COc1ncccc1-c1cnn2ccc(-c3ccn(CCC(C)C)c(=O)c3)nc12 [1-isopentyl-4-(3-(2-methoxypyridin-3-yl)pyrazolo[1,5-a]pyrimidin-5-yl)pyridin-2(1H)-one] | –
11 | ≤ 10 nM | ≤ 10 nM | – | COc1ncc(F)cc1-c1cnn2ccc(-c3ccn(CCC(F)(F)F)c(=O)c3)nc12 [4-(3-(5-fluoro-2-methoxypyridin-3-yl)pyrazolo[1,5-a]pyrimidin-5-yl)-1-(3,3,3-trifluoropropyl)pyridin-2(1H)-one] | –
12 | ≤ 10 nM | ≤ 100 nM | – | CC(C)CCn1ccc(-c2ccn3ncc(Cl)c3n2)cc1=O [4-(3-chloropyrazolo[1,5-a]pyrimidin-5-yl)-1-isopentylpyridin-2(1H)-one] | –
13 | ≤ 10 nM | ≤ 10 nM | – | COc1ncccc1-c1cnn2ccc(C3=CCN(C(=O)OC(C)C)CC3)nc12 [isopropyl 4-(3-(2-methoxypyridin-3-yl)pyrazolo[1,5-a]pyrimidin-5-yl)-5,6-dihydropyridine-1(2H)-carboxylate] | –
14 | ≤ 10 nM | ≤ 10 nM | – | COc1ccc(F)cc1-c1cnn2ccc(-c3ccn(CCC(C)C)c(=O)c3)nc12 [4-(3-(5-fluoro-2-methoxyphenyl)pyrazolo[1,5-a]pyrimidin-5-yl)-1-isopentylpyridin-2(1H)-one] | –

From patent US9862724B2, “Pyrazolo[1,5-a]pyrimidine-based compounds, compositions comprising them, and methods of their use” (LEXICON PHARMACEUTICALS, INC., priority 2013, dated 2018)
